11 compounds from ChEMBL document CHEMBL1147845, “Rapid synthesis of sulfone derivatives as potential anti-infectious agents” (2007) can be followed below.

In experiment [1] the test system is Candida albicans. Briefly: Antimicrobial activity against Candida albicans ATCC 90029 by disk diffusion method. It counts as functional, organism-based.
Experiment [2] has as its system Staphylococcus aureus. In words: Antimicrobial activity against Staphylococcus aureus ATCC 6538 by disk diffusion method. It counts as functional. Background: Agar diffusion results depend on both activity and mobility in agar.
The test system of experiment [3] is Pseudomonas aeruginosa. In words: Antimicrobial activity against Pseudomonas aeruginosa ATCC 15442 by disk diffusion method. It counts as functional, organism-based.
Experiment [4] relates to Candida tropicalis. Briefly: Antimicrobial activity against Candida tropicalis IP 2031 by disk diffusion method. The class given is functional.
The test system of experiment [5] is Enterococcus hirae. In words: Antimicrobial activity against Enterococcus hirae ATCC 10541 by disk diffusion method. The class given is functional, organism-based.
For experiment [6], the system named is Escherichia coli. In words: Antimicrobial activity against Escherichia coli ATCC 10536 by disk diffusion method. The class given is functional.
Experiment [7] deals with Staphylococcus aureus. In words: Antimicrobial activity against Staphylococcus aureus ATCC 6538 by broth microdilution method. It counts as functional.
In experiment [8] the test system is Candida tropicalis. In words: Antimicrobial activity against Candida tropicalis IP 2031 by broth microdilution method. The class given is functional. (In general: Dilution methods test growth across graded concentrations, often in twofold steps.)
Experiment [9] deals with Pseudomonas aeruginosa. Briefly: Antimicrobial activity against Pseudomonas aeruginosa ATCC 15442 at 20 ug by disk diffusion method. It counts as functional, organism-based.
Experiment [10] concerns Enterococcus hirae. In words: Antimicrobial activity against Enterococcus hirae ATCC 10541 at 20 ug by disk diffusion method. It counts as functional, organism-based.
For experiment [11], the system named is Staphylococcus aureus. In words: Antimicrobial activity against Staphylococcus aureus ATCC 6538 at 20 ug by disk diffusion method. The class given is functional, organism-based.
In experiment [12] the test system is Candida tropicalis. Briefly: Antimicrobial activity against Candida tropicalis IP 2031 at 20 ug by disk diffusion method. The class given is functional. The settings on record: read-out: IZ.
Experiment [13] concerns Candida albicans. Briefly: Antimicrobial activity against Candida albicans ATCC 90029 at 20 ug by disk diffusion method. The class given is functional. The settings on record: read-out: IZ.
The test system of experiment [14] is Escherichia coli. Briefly: Antimicrobial activity against Escherichia coli ATCC 10536 at 20 ug by disk diffusion method. It counts as functional, organism-based.
In experiment [15] the test system is Enterococcus hirae. In words: Antimicrobial activity against Enterococcus hirae ATCC 10541 at 10 ug by disk diffusion method. The class given is functional, organism-based.
The test system of experiment [16] is Candida albicans. Briefly: Antimicrobial activity against Candida albicans ATCC 90029 at 10 ug by disk diffusion method. The class given is functional, organism-based.
Experiment [17] has as its system Staphylococcus aureus. In words: Antimicrobial activity against Staphylococcus aureus ATCC 6538 at 10 ug by disk diffusion method. It counts as functional. The conditions noted are these: read-out: IZ.
Experiment [18] concerns Escherichia coli. Briefly: Antimicrobial activity against Escherichia coli ATCC 10536 at 10 ug by disk diffusion method. The class given is functional, organism-based.
Experiment [19] deals with Candida tropicalis. In words: Antimicrobial activity against Candida tropicalis IP 2031 at 10 ug by disk diffusion method. The class given is functional, organism-based.
For experiment [20], the system named is Pseudomonas aeruginosa. Briefly: Antimicrobial activity against Pseudomonas aeruginosa ATCC 15442 at 10 ug by disk diffusion method. It counts as functional, organism-based.
Experiment [21] concerns Candida albicans. In words: Antimicrobial activity against Candida albicans ATCC 90029 at 30 ug by disk diffusion method. The class given is functional, organism-based.
Experiment [22] has as its system Enterococcus hirae. Briefly: Antimicrobial activity against Enterococcus hirae ATCC 10541 at 30 ug by disk diffusion method. The class given is functional, organism-based.
The test system of experiment [23] is Staphylococcus aureus. Briefly: Antimicrobial activity against Staphylococcus aureus ATCC 6538 at 30 ug by disk diffusion method. The class given is functional, organism-based.
Experiment [24] relates to Pseudomonas aeruginosa. In words: Antimicrobial activity against Pseudomonas aeruginosa ATCC 15442 at 30 ug by disk diffusion method. It counts as functional, organism-based.
Experiment [25] relates to Candida tropicalis. Briefly: Antimicrobial activity against Candida tropicalis IP 2031 at 30 ug by disk diffusion method. The class given is functional, organism-based.
In experiment [26] the test system is Escherichia coli. In words: Antimicrobial activity against Escherichia coli ATCC 10536 at 30 ug by disk diffusion method. The conditions noted are these: read-out: IZ. The class given is functional.

In brackets after ≈: the same amount, converted by molar mass. Activity calls are given as the source filed them. Bounds are passed on as bounds.

For `O=C(c1ccc([N+](=O)[O-])cc1)C(Cc1ccccc1)S(=O)(=O)c1ccccc1` (centres undefined), the outcome in experiment [1], in experiment [2], in experiment [3], in experiment [4], in experiment [5] and in experiment [6] was inactive.

With `O=C(CS(=O)(=O)c1ccc(F)cc1)c1ccc([N+](=O)[O-])cc1`, the MIC in experiment [7] and in experiment [8] was over 100 µg/mL in each case. Moreover, the result in experiment [1], in experiment [3], in [5] and in experiment [6] was inactive. Moreover, the “inhibition zone (IZ)” value turned out to be 25 mm in experiment [2] and 19 mm in experiment [4].

For the compound `Nc1ccc(S(=O)(=O)c2ccc(N)cc2)cc1` [DAPSONE], the MIC in experiment [7] and in experiment [8] was over 100 µg/mL throughout.

For the compound `O=C(CS(=O)(=O)c1ccc(I)cc1)c1ccc([N+](=O)[O-])cc1`, the MIC in experiment [7] and in [8] was over 100 µg/mL throughout. The outcome in experiment [1], in experiment [3], in experiment [4], in experiment [5] and in experiment [6] was inactive. The “inhibition zone (IZ)” value in [2] is 11 mm.

In the case of `O=C(CS(=O)(=O)c1ccc([N+](=O)[O-])cc1)c1ccc([N+](=O)[O-])cc1`, the MIC in experiment [7] and in experiment [8] was 100 µg/mL (≈ 285 µM) in each case. In addition, the outcome in experiment [1], in experiment [3], in [5] and in experiment [6] was inactive. The “inhibition zone (IZ)” value in [2] stood at 28 mm; in experiment [4], 12 mm.

As to `O=C(CS(=O)(=O)c1cccc2ccccc12)c1ccc([N+](=O)[O-])cc1`, the MIC in experiment [7] and in experiment [8] was over 100 µg/mL each time. Besides, the result in [1], in experiment [3], in experiment [5] and in experiment [6] was inactive. The “inhibition zone (IZ)” value in [2] turned out to be 10 mm; in experiment [4] it was 12 mm.

In the case of `O=C(CS(=O)(=O)c1ccc(Cl)cc1)c1ccc([N+](=O)[O-])cc1`, the MIC in [7] and in experiment [8] was 100 µg/mL (≈ 294 µM) in each case. In addition, the outcome in [1], in [3], in experiment [5] and in experiment [6] was inactive. In addition, the results for the “inhibition zone (IZ)” value in [2] and in [4] were 24 mm and 19 mm, respectively.

`OC(Cn1cncn1)(Cn1cncn1)c1ccc(F)cc1F` [FLUCONAZOLE]: the result in experiment [9], in [10], in experiment [11] and in experiment [14] was inactive. The figures for the zone of inhibition at 20 µg/disc in experiment [12] and in [13] were 21 mm and 18 mm, respectively.

On to `CN[C@@H]1[C@H](O[C@H]2[C@H](O[C@H]3[C@H](O)[C@@H](O)[C@H](N=C(N)N)[C@@H](O)[C@@H]3N=C(N)N)O[C@@H](C)[C@]2(O)C=O)O[C@@H](CO)[C@H](O)[C@H]1O` [STREPTOMYCIN], for which the outcome in experiment [15], in experiment [16], in experiment [18], in [19] and in experiment [20] was inactive. Moreover, the zone of inhibition at 10 µg/disc in [17] came out at 27 mm.

On to `O=C(N[C@H](CO)[C@H](O)c1ccc([N+](=O)[O-])cc1)C(Cl)Cl` [CHLORAMPHENICOL], for which the result in experiment [21], in experiment [22], in experiment [23], in [24] and in experiment [25] was inactive. The zone of inhibition at 30 µg/disc in experiment [26] came to 34 mm.

In the case of `Cc1ccc(S(=O)(=O)CC(=O)c2ccc([N+](=O)[O-])cc2)cc1`, the MIC in experiment [7] and in experiment [8] was over 100 µg/mL in each case. For the same compound, the result in experiment [1], in experiment [3] and in [5] was inactive. The entries for the “inhibition zone (IZ)” value in experiment [2], in experiment [4] and in [6] were 11 mm, 22 mm and 12 mm, respectively.

The MIC is the smallest concentration in the dilution series that meets the test's criterion for growth inhibition.
